Measurements taken from patent US7012094B1, “Substituted furans and furanones for the treatment of inflammation” (G.D. Searle, LLC, priority 1994, dated 2006).
Marks after values point to notes of the source that are not given here.

Tests used:
[1] = target: T1, Murine COX II (Mus musculus, UniProt Q05769); assay: COX II activity in vitro (PGE2 ELISA, recombinant enzyme); format: biochemical; settings: arachidonic acid 10 μM, read-out: Murine COX II ID50
T1 construct: coding region of either human or murine COX-I or human or murine COX-II was cloned; made in house; host or cells: SF9 insect cells (baculovirus, pVL1393)
T1 sequence (Q05769 18-604): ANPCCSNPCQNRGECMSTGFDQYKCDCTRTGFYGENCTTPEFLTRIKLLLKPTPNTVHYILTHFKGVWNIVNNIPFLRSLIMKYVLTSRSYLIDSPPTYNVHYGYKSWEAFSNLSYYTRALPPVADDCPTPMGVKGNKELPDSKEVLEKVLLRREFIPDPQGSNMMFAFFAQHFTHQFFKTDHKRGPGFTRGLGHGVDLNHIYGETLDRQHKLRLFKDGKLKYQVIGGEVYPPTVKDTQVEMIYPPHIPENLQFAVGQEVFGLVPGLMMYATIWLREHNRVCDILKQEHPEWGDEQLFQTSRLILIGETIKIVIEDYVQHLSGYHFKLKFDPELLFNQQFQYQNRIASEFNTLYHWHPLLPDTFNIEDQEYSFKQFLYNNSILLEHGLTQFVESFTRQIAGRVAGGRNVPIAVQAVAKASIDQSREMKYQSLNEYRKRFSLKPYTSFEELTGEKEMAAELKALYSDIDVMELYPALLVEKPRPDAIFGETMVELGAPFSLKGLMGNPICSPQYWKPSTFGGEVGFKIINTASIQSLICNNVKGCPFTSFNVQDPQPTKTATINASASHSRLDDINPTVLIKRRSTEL
Procedure: A 2.0 kb fragment containing the coding region of either human or murine COX-I or human or murine COX-II was cloned into a BamH1 site of the baculovirus transfer vector pVL1393 to generate the baculovirus transfer vector. Recombinant baculoviruses were isolated by transfecting 4 μg of baculovirus transfer vector DNA into SF9 cells (2×10e8) along with 200 ng of linearized baculovirus plasmid DNA by the calcium phosphate method. […] The homogenate was centrifuged at 10,000×G for 30 minutes, and the resultant supernatant was stored at −80° C. before being assayed for COX activity.
COX activity was assayed as PGE2 formed/μg protein/time using an ELISA to detect the prostaglandin released. CHAPS-solubilized insect cell membranes containing the appropriate COX enzyme were incubated in a potassium phosphate buffer (50 mM, pH 8.0) containing epinephrine, phenol, and heme with the addition of arachidonic acid (10 μM). […] The PGE2 formed was measured by standard ELISA technology (Cayman Chemical).

[2] = tested on: carrageenan-induced hyperalgesic foot withdrawal; assay: Rat carrageenan-induced analgesia test; format: in vivo; settings: oral, 3 mpk (footnote *); 3 h after carrageenan
Procedure: The analgesia test using rat carrageenan was performed with materials, reagents and procedures essentially as described by Hargreaves, et al., (Pain, 32, 77 (1988)). Male Sprague-Dawley rats were treated as previously described for the Carrageenan Foot Pad Edema test. Three hours after the injection of the carrageenan, the rats were placed in a special plexiglass container with a transparent floor having a high intensity lamp as a radiant heat source, positionable under the floor. After an initial twenty minute period, thermal stimulation was begun on either the injected foot or on the contralateral uninjected foot. A photoelectric cell turned off the lamp and timer when light was interrupted by paw withdrawal. The time until the rat withdraws its foot was then measured. The withdrawal latency in seconds was determined for the control and drug-treated groups, and percent inhibition of the hyperalgesic foot withdrawal determined.

Row | SMILES | IC50 [1] [nM] | ANALGESIA % Inhibition @ 3 mpk [2]
1 | Cc1cc(F)ccc1-c1cscc1-c1ccc(S(C)(=O)=O)cc1 [Example 15, 3-(4-Methylsulfonylphenyl)-4-(2-methyl-4-fluorophenyl) thiophene] | < 100 | –
2 | CS(=O)(=O)c1ccc(-c2csc(Br)c2-c2ccc(F)cc2)cc1 [Example 2, 4-(4-Methylsulfonylphenyl)-3-(4-fluorophenyl)-2-bromothiophene] | – | 0* %
